3 molecules from patent US9422263B2, “Fluoro-substituted 3,5-dicyano-4-(1H-indazol-5-yl)-2,6-dimethyl-1,4-dihydropyridine derivatives and methods of use thereof” (BAYER PHARMA AKTIENGESELLSCHAFT, priority 2009, dated 2016) can be followed below.

The structures appear in SMILES notation.

The target of the experiment is recombinant kinase domain of the human c-Met (amino acids 960-1390) (Homo sapiens (Human), UniProt P08581). The experiment in a line: c-Met receptor tyrosine kinase homogeneous time-resolved fluorescence assay (alternative format). The class given is biochemical. Particulars: HTRF format; ATP 10 μM. An excerpt: c-Met Receptor Tyrosine Kinase Homogeneous Time-Resolved Fluorescence Assay (Alternative Format):
The N-terminally His6-tagged recombinant kinase domain of the human c-Met (amino acids 960-1390), expressed in insect cells (SF21) and purified by Ni-NTA affinity chromatography and consecutive size exclusion chromatography (Superdex 200), is used. Alternatively, commercially available c-Met (Millipore) can be used. As substrate for the kinase reaction, the biotinylated poly-Glu, Tyr (4:1) copolymer (#61GTOBLC, Cis Biointernational, Marcoule, France) is used.
For the assay, […] of a 100-fold concentrated solution of the test compound in DMSO is pipetted into a black low-volume 384-well microtiter plate (Greiner Bio-One, Frickenhausen, Germany). 2 μL of a solution of c-Met in assay buffer [25 mM Hepes/NaOH, pH 7.5; 5 mM MgCl2; 5 mM MnCl2; 2 mM dithiothreitol; 0.1% (v/v) Tween 20 (Sigma); 0.1% (w/v) bovine serum albumin] are added, and the mixture is incubated for 15 min at 22° C. to allow pre-binding of the test compound to the enzyme before the start of the kinase reaction. Then, the kinase reaction is started by the addition of 3 μL of a solution of adenosine triphosphate (ATP, 16.7 μM; final concentration in the 5 μL assay volume is 10 μM) and substrate (2.27 μg/mL, final concentration in the 5 μL assay volume is 1.36 μg/mL ˜30 nM) in assay buffer, and the resulting mixture is incubated for a reaction time of 30 min at 22° C. The concentration of c-Met in the assay is adjusted depending on the activity of the enzyme lot and is appropriately chosen to have the assay in the linear range; typical enzyme concentrations are in the range of about 0.03 nM (final concentration in the 5 μL assay volume). The reaction is stopped by the addition of 5 μL of a solution of HTRF detection reagents [40 nM streptavidine-X Lent and 2.4 nM PT66-Eu-chelate, an europium-chelate labelled anti-phosphotyrosine antibody (Perkin-Elmer)] in an aqueous EDTA solution [100 mM EDTA, 0.2% (w/v) bovine serum albumin in 50 mM HEPES/NaOH, pH 7.5].
The resulting mixture is incubated for 1 h at 22° C. to allow the binding of the biotinylated phosphorylated peptide to the streptavidine-XLent and the PT66-Eu-chelate. Subsequently, the amount of phosphorylated substrate is evaluated by measurement of the resonance energy transfer from the PT66-Eu-chelate to the streptavidine-XLent. Therefore, the fluorescence emissions at 620 nm and 665 nm after excitation at 350 nm are measured in an HTRF reader, e.g. Rubystar (BMG Lab-technologies, Offenburg, Germany) or Viewlux (Perkin-Elmer). The ratio of the emissions at 665 nm and at […] is taken as the measure for the amount of phosphorylated substrate. The data are normalised (enzyme reaction without inhibitor=0% inhibition; all other assay components but no enzyme=100% inhibition).

recombinant kinase domain of the human c-Met (amino acids 960-1390), sequence (P08581 960-1390): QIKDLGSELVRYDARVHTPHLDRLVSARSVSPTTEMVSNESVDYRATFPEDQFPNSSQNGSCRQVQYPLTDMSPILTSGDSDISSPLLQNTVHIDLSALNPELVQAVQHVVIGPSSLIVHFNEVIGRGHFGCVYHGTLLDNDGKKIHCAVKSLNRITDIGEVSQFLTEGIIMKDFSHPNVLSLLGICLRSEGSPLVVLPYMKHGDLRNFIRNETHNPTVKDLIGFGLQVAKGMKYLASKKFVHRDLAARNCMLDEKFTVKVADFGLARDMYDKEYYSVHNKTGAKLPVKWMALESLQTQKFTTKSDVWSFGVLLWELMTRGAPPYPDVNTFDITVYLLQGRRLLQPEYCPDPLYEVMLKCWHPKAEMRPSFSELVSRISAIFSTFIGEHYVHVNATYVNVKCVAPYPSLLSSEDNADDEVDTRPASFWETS

For the molecule `CC1=C(C#N)C(c2ccc3[nH]nc(C)c3c2)C(C#N)=C(C(F)F)N1` (single isomer, unassigned) [Example 3, 2-(Difluoromethyl)-6-methyl-4-(3-methyl-1H-indazol-5-yl)-1,4-dihydropyridine-3,5-dicarbonitrile], the IC50 (commonly the concentration that gives 50% inhibition) turned out to be 2 nM. As for `Cc1n[nH]c2cc(F)c(C3C(C#N)=C(C(F)F)NC(C(F)F)=C3C#N)cc12` [Example 14, 2,6-Bis(difluoromethyl)-4-(6-fluoro-3-methyl-1H-indazol-5-yl)-1,4-dihydropyridine-3,5-dicarbonitrile], the half-maximal inhibitory concentration (IC50) turned out to be 3 nM. The result for `CC1=C(C#N)C(c2ccc3[nH]nc(C)c3c2)C(C#N)=C(C(F)(F)F)N1` (single isomer, unassigned) [Example 6] reads 1 nM.
